Measured values reported in US11478461B2, “[1.1.1] bicyclo compounds as indoleamine 2,3-dioxygenase inhibitors” (Merck Sharp & Dohme Corp., priority 2018, dated 2022).
pIC50: −log10 of the molar value.

Target: IDO1 (Homo sapiens, UniProt P14902)
Assay: IDO1 Cellular Assay in Hela Cells Stimulated with IFNγ
Type: cell-based
Settings: IFNγ 100 ng/mL, 300 uM L-tryptophan, about 48 hours, fluorescence readout, read-out: IDO1 HELA Cell Assay, IC50
Procedure: Biological Assays IDO1 Cellular Assay in Hela Cells Stimulated with IFNγ
Hela cells were cultured in complete Hela culture medium ([…], 10% heat-inactivated fetal bovine serum) and expanded to about 1×10^9 cells. The cells were then collected and frozen down at 10×10^6 cells/vial in 1 mL frozen medium (90% complete Hela culture medium, 10% DMSO).
Compounds to be tested were serially diluted in ten 3-fold steps in DMSO starting from 10 mM DMSO stocks in Echo low volume plate(s). Compound dilutions or DMSO alone were then dispensed from the dilution plate(s) into Greiner black 384-well assay plate(s) (catalog #781086, 50 nL/well) using an Echo 550 acoustic liquid handler (Labcyte).
Frozen Hela cells were thawed and transferred into Hela assay medium (99% complete Hela culture medium, 1% Pen/Strep) with 20 mL medium/vial of cells. The cells were spun down at 250 g in a table top centrifuge for 5 min and suspended in same volume of Hela assay medium. […] Sterile L-tryptophan were added to the cells with final concentration of 300 uM L-tryptophan. A small aliquot (2 mL/plate) of Hela cells were set aside and were not treated with IFNγ, to serve as the Max-E control. The rest of Hela cells were added with sterile IFNγ (Cat #285-IF, R & D systems) with a final concentration of 100 ng/mL.
Hela cells with and without IFNγ were dispensed to the respective wells of 384-well assay plates containing the compounds. The plates were incubated for about 48 hours at a 37° C., 5% CO2 incubator. Afterwards, 12 μL of 0.5 M methyl isonipecotate in dimethyl sulfoxide were added into each well and the plates were sealed and incubated at 37° C. without CO2 overnight. The plates were centrifuged for 1 min at 200×g. The resulting fluorescence was measured in a Spectramax plate reader (Molecular Devices) with a 400 nm excitation filter and a 510 nm emission filter.
Potencies were calculated by […] least squares fit to the four parameter logistic IC50 equation.

Chain of IDO1 (P14902 whole entry): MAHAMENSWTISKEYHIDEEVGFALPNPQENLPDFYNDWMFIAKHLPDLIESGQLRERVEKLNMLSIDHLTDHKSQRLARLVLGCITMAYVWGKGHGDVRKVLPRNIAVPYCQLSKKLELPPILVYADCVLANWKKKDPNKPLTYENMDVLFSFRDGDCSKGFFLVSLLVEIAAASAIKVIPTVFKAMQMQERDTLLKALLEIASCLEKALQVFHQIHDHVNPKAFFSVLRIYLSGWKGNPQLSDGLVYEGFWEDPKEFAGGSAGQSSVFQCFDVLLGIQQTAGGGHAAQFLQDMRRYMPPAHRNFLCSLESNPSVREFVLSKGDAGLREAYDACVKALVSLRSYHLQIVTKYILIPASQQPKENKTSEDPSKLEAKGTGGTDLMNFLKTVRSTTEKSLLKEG

Compound	pIC50
C[C@@H](C(=O)Nc1ccc(F)cc1)C12CC(NC(=O)c3cccc(Cl)n3)(C1)C2 [Example 33, (R)-6-Chloro-N-(3-(1-((4-fluorophenyl)amino)-1-oxopropan-2-yl)bicyclo[1.1.1]pentan-1-yl)picolinamide]	5.14
C[C@H](C(=O)Nc1cnc(Cl)c(Cl)c1)C12CC(NC(=O)c3ccc(Cl)c(Cl)c3)(C1)C2 [Example 93, (S)-3,4-dichloro-N-(3-(1-((5,6-dichloropyridin-3-yl)amino)-1-oxopropan-2-yl)bicyclo[1.1.1]pentan-1-yl)benzamide]	6.98
C[C@H](C(=O)Nc1ccc(F)cc1)C12CC(NC(=O)c3cccc(Cl)c3F)(C1)C2 [Example 51, 3-chloro-2-fluoro-N-[3-[(1S)-2-(4-fluoroanilino)-1-methyl-2-oxo-ethyl]-1-bicyclo[1.1.1]pentanyl]benzamide]	6.65
C[C@H](C(=O)Nc1ccc(F)cc1)C12CC(NC(=O)c3cccc(C(F)(F)F)n3)(C1)C2 [Example 152, (S)-N-(3-(1-((4-fluorophenyl)amino)-1-oxopropan-2-yl)bicyclo[1.1.1]pentan-1-yl)-6-(trifluoromethyl)picolinamide]	7.46
CC(C(=O)Nc1ccc(F)cc1)C12CC(NC(=O)c3cccc4cnccc34)(C1)C2 (centres unmarked) [Example 134, N-[3-[2-(4-fluoroanilino)-1-methyl-2-oxo-ethyl]-1-bicyclo[1.1.1]pentanyl]isoquinolin-2-ium-5-carboxamide]	6.57
Cc1cc(C(=O)NC23CC([C@H](C)C(=O)Nc4ccc(F)cc4)(C2)C3)ccc1F [Example 54, 4-fluoro-N-[3-[(1S)-2-(4-fluoroanilino)-1-methyl-2-oxo-ethyl]-1-bicyclo[1.1.1]pentanyl]-3-methyl-benzamide]	6.73
CC(C(=O)Nc1ccc(F)cc1)C12CC(NC(=O)c3cccc(OC(F)(F)F)c3)(C1)C2 (centres unmarked) [Example 109, N-[3-[2-(4-fluoroanilino)-1-methyl-2-oxo-ethyl]-1-bicyclo[1.1.1]pentanyl]-3-(trifluoromethoxy)benzamide]	7.95
C[C@@H](C(=O)Nc1ccc(F)cc1)C12CC(NC(=O)c3ccc(F)c(F)c3)(C1)C2 [Example 43, 3,4-difluoro-N-[3-[(1R)-2-(4-fluoroanilino)-1-methyl-2-oxo-ethyl]-1-bicyclo[1.1.1]pentanyl]benzamide]	6.82
Cc1ccc(C(=O)NC23CC([C@H](C)C(=O)Nc4ccc(F)cc4)(C2)C3)nc1Cl [Example 61, 6-chloro-N-[3-[(1S)-2-(4-fluoroanilino)-1-methyl-2-oxo-ethyl]-1-bicyclo[1.1.1]pentanyl]-5-methyl-pyridin-1-ium-2-carboxamide]	7.96
CC(C(=O)Nc1ccc(F)cc1)C12CC(NC(=O)c3ccc(C(F)(F)F)cn3)(C1)C2 (centres unmarked) [Example 133, N-[3-[2-(4-fluoroanilino)-1-methyl-2-oxo-ethyl]-1-bicyclo[1.1.1]pentanyl]-5-(trifluoromethyl)pyridin-1-ium-2-carboxamide]	6.59
CC(C(=O)Nc1ccc(Cl)c(F)c1)C12CC(NC(=O)c3cccc(Cl)c3)(C1)C2 (single isomer, unassigned) [Example 10, 3-chloro-N-(3-(1-((4-chloro-3-fluorophenyl)amino)-1-oxopropan-2-yl)bicyclo[1.1.1]pentan-1-yl)benzamide]	7.44
CC(C(=O)Nc1ccc(F)cc1)C12CC(NC(=O)c3cccc4cncn34)(C1)C2 (centres unmarked) [Example 111, N-[3-[2-(4-fluoroanilino)-1-methyl-2-oxo-ethyl]-1-bicyclo[1.1.1]pentanyl]imidazo[1,5-a]pyridin-2-ium-5-carboxamide]	7.47
Cc1ccnc(C(=O)NC23CC([C@H](C)C(=O)Nc4ccc(F)cc4)(C2)C3)n1 [Example 57, N-[3-[(1S)-2-(4-fluoroanilino)-1-methyl-2-oxo-ethyl]-1-bicyclo[1.1.1]pentanyl]-4-methyl-pyrimidin-1-ium-2-carboxamide]	7.80
C[C@H](C(=O)Nc1ccc(F)cc1)C12CC(NC(=O)Nc3cccc4ccccc34)(C1)C2 [Example 86, (S)-N-(4-fluorophenyl)-2-(3-(3-(naphthalen-1-yl)ureido)bicyclo[1.1.1]pentan-1-yl)propanamide]	7.07
C[C@H](C(=O)Nc1ccc(F)cc1)C12CC(NC(=O)c3ccc(F)c(F)c3)(C1)C2 [Example 69, (S)-3,4-Difluoro-N-(3-(1-((4-fluorophenyl)amino)-1-oxopropan-2-yl)bicyclo[1.1.1]pentan-1-yl)benzamide]	7.63
COc1cc(C(=O)NC23CC(C(C)C(=O)Nc4ccc(F)cc4)(C2)C3)ccn1 (centres unmarked) [Example 125, N-[3-[2-(4-fluoroanilino)-1-methyl-2-oxo-ethyl]-1-bicyclo[1.1.1]pentanyl]-2-methoxy-pyridin-1-ium-4-carboxamide]	6.75
C[C@@H](C(=O)Nc1cnc(Cl)nc1)C12CC(NC(=O)c3ccc(Cl)c(Cl)c3)(C1)C2 [Example 90, (R)-3,4-dichloro-N-(3-(1-((2-chloropyrimidin-5-yl)amino)-1-oxopropan-2-yl)bicyclo[1.1.1]pentan-1-yl)benzamide]	6.93
O=C(NC1(C23CC(NC(=O)c4ccc(C(F)(F)F)cn4)(C2)C3)CC1)c1ccc(F)cc1 [Example 26, N-(3-(1-(4-fluorobenzamido)cyclopropyl)bicyclo[1.1.1]pentan-1-yl)-5-(trifluoromethyl)picolinamide]	6.42
CC(C(=O)Nc1ccc(Cl)nc1)C12CC(NC(=O)c3ccc4c(c3)CC4)(C1)C2 (centres unmarked) [Example 18, N-(3-(1-((6-chloropyridin-3-yl)amino)-1-oxopropan-2-yl)bicyclo[1.1.1]pentan-1-yl)bicyclo[4.2.0]octa-1(6),2,4-triene-3-carboxamide]	8.54
Cc1cncc(C(=O)NC23CC(C(C)C(=O)Nc4ccc(F)cc4)(C2)C3)c1 (centres unmarked) [Example 122, N-[3-[2-(4-fluoroanilino)-1-methyl-2-oxo-ethyl]-1-bicyclo[1.1.1]pentanyl]-5-methyl-pyridin-1-ium-3-carboxamide]	6.88
C[C@H](C(=O)Nc1ccc(F)cc1)C12CC(NC(=O)c3ccc(Cl)c(F)c3)(C1)C2 [Example 47, 4-chloro-3-fluoro-N-[3-[(1S)-2-(4-fluoroanilino)-1-methyl-2-oxo-ethyl]-1-bicyclo[1.1.1]pentanyl]benzamide]	6.82
CC(C(=O)Nc1ccc(F)cc1)C12CC(NC(=O)c3cccc4c3CC(=O)N4)(C1)C2 (centres unmarked) [Example 121, N-[3-[2-(4-fluoroanilino)-1-methyl-2-oxo-ethyl]-1-bicyclo[1.1.1]pentanyl]-2-oxo-indoline-4-carboxamide]	6.88
Cc1cc(C(=O)NC23CC([C@@H](C)C(=O)Nc4ccc(F)cc4)(C2)C3)ccc1F [Example 39, 4-fluoro-N-[3-[(1R)-2-(4-fluoroanilino)-1-methyl-2-oxo-ethyl]-1-bicyclo[1.1.l]pentanyl]-3-methyl-benzamide]	6.70
CC(C(=O)Nc1ccc(F)cc1)C12CC(NC(=O)c3ccn(C(F)F)n3)(C1)C2 (centres unmarked) [Example 131, 1-(difluoromethyl)-N-[3-[2-(4-fluoroanilino)-1-methyl-2-oxo-ethyl]-1-bicyclo[1.1.1]pentanyl]pyrazole-3-carboxamide]	6.61
C[C@H](C(=O)Nc1ccc(F)c(F)c1)C12CC(NC(=O)c3ccc(Cl)c(Cl)c3)(C1)C2 [Example 97, (S)-3,4-dichloro-N-(3-(1-((3,4-difluorophenyl)amino)-1-oxopropan-2-yl)bicyclo[1.1.1]pentan-1-yl)benzamide]	6.59
C[C@H](C(=O)Nc1ccc(F)c(C(F)(F)F)c1)C12CC(NC(=O)c3ccc(Cl)c(Cl)c3)(C1)C2 [Example 95, (S)-3,4-dichloro-N-(3-(1-((4-fluoro-3-(trifluoromethyl)phenyl)amino)-1-oxopropan-2-yl)bicyclo[1.1.1]pentan-1-yl)benzamide]	7.22
CC(C(=O)Nc1ccc(F)cc1)C12CC(NC(=O)c3cccc4ccnn34)(C1)C2 (centres unmarked) [Example 126, N-[3-[2-(4-fluoroanilino)-1-methyl-2-oxo-ethyl]-1-bicyclo[1.1.1]pentanyl]pyrazolo[1,5-a]pyridin-1-ium-7-carboxamide]	6.74
C[C@H](C(=O)Nc1ccc(F)cc1)C12CC(NC(=O)c3cncc(C(F)(F)F)c3)(C1)C2 [Example 68, N-[3-[(1S)-2-(4-fluoroanilino)-1-methyl-2-oxo-ethyl]-1-bicyclo[1.1.1]pentanyl]-5-(trifluoromethyl)pyridin-1-ium-3-carboxamide]	7.86
CC(C(=O)Nc1ccc(F)cc1)C12CC(NC(=O)c3ncccc3F)(C1)C2 (centres unmarked) [Example 137, 3-fluoro-N-[3-[2-(4-fluoroanilino)-1-methyl-2-oxo-ethyl]-1-bicyclo[1.1.1]pentanyl]pyridin-1-ium-2-carboxamide]	6.41
